Data on 21 compounds can be found in US10604526B2, “Chemokine receptor modulators and uses thereof” (RAPT THERAPEUTICS, INC., priority 2016, dated 2020).

This assay addresses T1, hCCR4 (Homo sapiens, UniProt P51679).
T1 sequence (P51679 1-360): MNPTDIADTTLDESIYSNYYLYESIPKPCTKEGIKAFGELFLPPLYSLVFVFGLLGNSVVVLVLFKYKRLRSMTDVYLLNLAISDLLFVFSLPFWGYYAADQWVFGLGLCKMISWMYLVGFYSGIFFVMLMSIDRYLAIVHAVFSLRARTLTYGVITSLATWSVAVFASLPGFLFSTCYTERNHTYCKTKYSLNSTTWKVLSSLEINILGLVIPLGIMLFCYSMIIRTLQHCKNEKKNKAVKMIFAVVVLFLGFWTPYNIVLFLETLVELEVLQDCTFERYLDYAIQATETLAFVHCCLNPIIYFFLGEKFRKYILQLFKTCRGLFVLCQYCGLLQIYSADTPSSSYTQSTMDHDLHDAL
Kind of assay: Calcium flux assay. The assay is classed as cell-based. The conditions noted are these: Chem5-hCCR4 cells, CCL22 at EC80 of 1.5 nM, FLIPR Calcium 6 dye; read-out: Potency (IC50). The essentials: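 Chem5 cells expressing hCCR4 were serum-starved for 2 h, loaded with Calcium 6 dye plus 2.5 mM probenecid, then given compound for 1 h at 37 °C (0.5% DMSO). CCL22 was added from a 7.5 nM working solution (5× EC80 of 1.5 nM). IC50 came from ΔF/Fmin (485/525 nm) by 4-parameter fit.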
(A change in cytosolic calcium serves as a functional read-out for many receptors and channels.)
In the case of `Cc1nn([C@H](C)c2ccc(Cl)cc2Cl)c2nc(N3CC([C@@H]4CCCN(CCNS(C)(=O)=O)C4)C3)cnc12` (single isomer, unassigned) [Example 98], the IC50 fell in the range of 100 to 500 nM.
As for `Cc1nn([C@H](C)c2ccc(Cl)cc2Cl)c2nc(N3CC([C@H]4CCCN(CCNS(C)(=O)=O)C4)C3)cnc12` (single isomer, unassigned) [Example 99], the figure is less than 100 nM; as for `CC(=O)NCCN1CCC[C@H](C2CN(c3cnc4c(C)nn([C@H](C)c5ccc(Cl)cc5Cl)c4n3)C2)C1` (single isomer, unassigned) [Example 100], less than 100 nM; as for `CC(=O)NCCN1CCC[C@@H](C2CN(c3cnc4c(C)nn([C@H](C)c5ccc(Cl)cc5Cl)c4n3)C2)C1` (single isomer, unassigned) [Example 101], less than 100 nM.
The value for `C[C@H](c1ccc(Cl)cc1Cl)n1nc(C#N)c2ncc(N3CC([C@H]4CCCN(CCCS(N)(=O)=O)C4)C3)nc21` (single isomer, unassigned) [Example 107] was less than 100 nM.
As for `C[C@H](c1ccc(Cl)cc1Cl)n1nc(C#N)c2ncc(N3CC([C@@H]4CCCN(CCCS(N)(=O)=O)C4)C3)nc21` (single isomer, unassigned) [Example 108], the half-inhibitory concentration (IC50) lay in the range of 100 to 500 nM.
As for `CC(C)S(=O)(=O)NCCN1CCC[C@H](C2CN(c3cnc4c(C(F)(F)F)nn([C@H](C)c5ccc(Cl)cc5Cl)c4n3)C2)C1` (single isomer, unassigned) [Example 109], the figure is less than 100 nM; as for `CC(C)S(=O)(=O)NCCN1CCC[C@@H](C2CN(c3cnc4c(C(F)(F)F)nn([C@H](C)c5ccc(Cl)cc5Cl)c4n3)C2)C1` (single isomer, unassigned) [Example 110], 100 to 500 nM; as for `C[C@H](c1ccc(Cl)cc1Cl)n1nc(C#N)c2ncc(N3CC([C@@H]4CCCN(Cc5cnc[nH]5)C4)C3)nc21` (single isomer, unassigned) [Example 111], 100 to 500 nM.
The value for `C[C@H](c1ccc(Cl)cc1Cl)n1nc(C#N)c2ncc(N3CC([C@H]4CCCN(Cc5cnc[nH]5)C4)C3)nc21` (single isomer, unassigned) [Example 112] was less than 100 nM.
As for `Cc1nn([C@H](C)c2ccc(Cl)cc2Cl)c2nc(N3CC([C@@H]4CCCN(CCCS(C)(=O)=O)C4)C3)cnc12` (single isomer, unassigned) [Example 113], the figure is 100 to 500 nM; as for `Cc1nn([C@H](C)c2ccc(Cl)cc2Cl)c2nc(N3CC([C@H]4CCCN(CCCS(C)(=O)=O)C4)C3)cnc12` (single isomer, unassigned) [Example 114], less than 100 nM.
As to `C[C@H](c1ccc(Cl)cc1Cl)n1nc(C(F)(F)F)c2ncc(N3CC([C@@H]4CCCN(CCCS(C)(=O)=O)C4)C3)nc21` (single isomer, unassigned) [Example 115], the IC50 is 100 to 500 nM.
As for `C[C@H](c1ccc(Cl)cc1Cl)n1nc(C(F)(F)F)c2ncc(N3CC([C@H]4CCCN(CCCS(C)(=O)=O)C4)C3)nc21` (single isomer, unassigned) [Example 116], the IC50 was less than 100 nM.
As for `C[C@H](c1ccc(Cl)cc1F)n1nc(C#N)c2ncc(N3CC([C@H]4CCCN(CCO)C4)C3)nc21` [Example 55, 1-((R)-1-(4-chloro-2-fluorophenyl)ethyl)-6-(3-((R)-1-(2-hydroxyethyl)piperidin-3-yl)azetidin-1-yl)-1H-pyrazolo[3,4-b]pyrazine-3-carbonitrile], the figure is less than 100 nM.
As for `CC(C)N1CCC[C@H](C2CN(c3cnc4c(C(F)(F)F)nn([C@H](C)c5ccc(Cl)cc5Cl)c4n3)C2)C1` [Example 102, 1-((R)-1-(2,4-dichlorophenyl)ethyl)-6-(3-((R)-1-isopropylpiperidin-3-yl)azetidin-1-yl)-3-(trifluoromethyl)-1H-pyrazolo[3,4-b]pyrazine], the figure is 100 to 500 nM; as for `C[C@H](c1ccc(Cl)cc1Cl)n1nc(C(F)(F)F)c2ncc(N3CC([C@H]4CCCN(C[C@@H](C)O)C4)C3)nc21` [Example 103, (R)-1-((R)-3-(1-(1-((R)-1-(2,4-dichlorophenyl)ethyl)-3-(trifluoromethyl)-1H-pyrazolo[3,4-b]pyrazin-6-yl)azetidin-3-yl)piperidin-1-yl)propan-2-ol], less than 100 nM; as for `C[C@H](O)CN1CCC[C@H](C2CN(c3cnc4c(C(F)(F)F)nn([C@H](C)c5ccc(Cl)cc5Cl)c4n3)C2)C1` [Example 104, (S)-1-((R)-3-(1-(1-((R)-1-(2,4-dichlorophenyl)ethyl)-3-(trifluoromethyl)-1H-pyrazolo[3,4-b]pyrazin-6-yl)azetidin-3-yl)piperidin-1-yl)propan-2-ol], less than 100 nM.
As for `CC(=O)N[C@H](C)CN1CCC[C@H](C2CN(c3cnc4c(C(F)(F)F)nn([C@H](C)c5ccc(Cl)cc5Cl)c4n3)C2)C1` [Example 105, N—((R)-1-((R)-3-(1-(1-((R)-1-(2,4-dichlorophenyl)ethyl)-3-(trifluoromethyl)-1H-pyrazolo[3,4-b]pyrazin-6-yl)azetidin-3-yl)piperidin-1-yl)propan-2-yl)acetamide], the figure is less than 100 nM.
As to `CC(=O)N[C@@H](C)CN1CCC[C@H](C2CN(c3cnc4c(C(F)(F)F)nn([C@H](C)c5ccc(Cl)cc5Cl)c4n3)C2)C1` [Example 106, N—((S)-1-((R)-3-(1-(1-((R)-1-(2,4-dichlorophenyl)ethyl)-3-(trifluoromethyl)-1H-pyrazolo[3,4-b]pyrazin-6-yl)azetidin-3-yl)piperidin-1-yl)propan-2-yl)acetamide], the IC50 was less than 100 nM.
The value for “N-(2-((R)-3-(1-(1-((R)-1-(2,4-dichlorophenyl)ethyl)-3-(trifluoromethyl)-1H-pyrazolo[3,4-b]pyrazin-6-yl)azetidin-3-yl)piperidin-1-yl)ethyl)propane-2-sulfonamide and N-(2-((S)-3-(1-(1-((R)-1-(2,4-dichlorophenyl)ethyl)-3-(trifluoromethyl)-1H-pyrazolo[3,4-b]pyrazin-6-yl)azetidin-3-yl)piperidin-1-yl)ethyl)propane-2-sulfonamide [Example 66]” was less than 100 nM.

In general, IC50 refers to the concentration that inhibits the measured activity by half.
